Measured values: the supplement of paper PMC13380429

Key:
Details in all cases: 72 h
[1] = test system: Caco-2; assay: drug sensitivity score (DSS) for viability; higher = more toxic; extreme values may be limits of the assay
[2] = test system: Vero E6; assay: as above
[3] = test system: HepG2; assay: as above
[4] = test system: U2OS; assay: as above
[5] = test system: Calu-3; assay: as above
[6] = test system: Caco-2; assay: relative viability EC50 (midpoint between 100% and the lowest measured viability); higher = less toxic
[7] = test system: Vero E6; assay: as above
[8] = test system: HepG2; assay: as above
[9] = test system: U2OS; assay: as above
[10] = test system: Calu-3; assay: as above
[11] = test system: Caco-2; assay: cell viability relative to DMSO; higher = less toxic
[12] = test system: Vero E6; assay: as above
[13] = test system: HepG2; assay: as above
[14] = test system: U2OS; assay: as above
[15] = test system: Calu-3; assay: as above

| SMILES | drug sensitivity score [1] | drug sensitivity score [2] | drug sensitivity score [3] | drug sensitivity score [4] | drug sensitivity score [5] | relative viability EC50 [6] [µM] | relative viability EC50 [7] [µM] | relative viability EC50 [8] [µM] | relative viability EC50 [9] [µM] | relative viability EC50 [10] [µM] | cell viability ([11]; 1 nM) [%] | cell viability ([11]; 10 nM) [%] | cell viability ([11]; 100 nM) [%] | cell viability ([11]; 1000 nM) [%] | cell viability ([11]; 10000 nM) [%] | cell viability ([12]; 1 nM) [%] | cell viability ([12]; 10 nM) [%] | cell viability ([12]; 100 nM) [%] | cell viability ([12]; 1000 nM) [%] | cell viability ([12]; 10000 nM) [%] | cell viability ([13]; 1 nM) [%] | cell viability ([13]; 10 nM) [%] | cell viability ([13]; 100 nM) [%] | cell viability ([13]; 1000 nM) [%] | cell viability ([13]; 10000 nM) [%] | cell viability ([14]; 1 nM) [%] | cell viability ([14]; 10 nM) [%] | cell viability ([14]; 100 nM) [%] | cell viability ([14]; 1000 nM) [%] | cell viability ([14]; 10000 nM) [%] | cell viability ([15]; 1 nM) [%] | cell viability ([15]; 10 nM) [%] | cell viability ([15]; 100 nM) [%] | cell viability ([15]; 1000 nM) [%] | cell viability ([15]; 10000 nM) [%] |
| --- | --- | --- | --- | --- | --- | --- | --- | --- | --- | --- | --- | --- | --- | --- | --- | --- | --- | --- | --- | --- | --- | --- | --- | --- | --- | --- | --- | --- | --- | --- | --- | --- | --- | --- | --- |
| C=C(C)[C@@H]1[C@H]2OC(=O)[C@@H]1[C@]1(O)C[C@H]3O[C@]34C(=O)O[C@H]2[C@]14C [picrotoxinin] | 0 | 0 | 0 | 0 | 0 | > 10 | > 10 | > 10 | > 10 | > 10 | 108 | 102 | 99.2 | 103 | 96.1 | 97.2 | 95.6 | 97.5 | 102 | 99.5 | 109 | 108 | 106 | 97.4 | 98.4 | 101 | 98.4 | 98.3 | 98.4 | 97.2 | 104 | 107 | 92.8 | 94.5 | 92.6 |
| O=[N+]([O-])c1nccn1CC(O)CN1CCCCC1 (stereo not given) [pimonidazole] | 0 | 0 | 0 | 0 | 0 | > 10 | > 10 | > 10 | > 10 | > 10 | 94.1 | 86.5 | 100 | 87.4 | 102 | 99.1 | 98 | 94.7 | 108 | 106 | 95.8 | 111 | 94.9 | 95.4 | 108 | 94 | 96.4 | 102 | 95.3 | 106 | 93.6 | 93.2 | 99.9 | 97 | 107 |
| CO[C@H]1[C@H](O)[C@@H](O)[C@@H](O)[C@H](O)[C@@H]1O [pinitol] | 0 | 0 | 0 | 0 | 0 | > 10 | > 10 | > 10 | > 10 | > 10 | 107 | 84.5 | 104 | 94 | 97 | 102 | 106 | 104 | 92.1 | 93.4 | 99.2 | 95.1 | 85.4 | 80 | 96.6 | 96.5 | 97.5 | 98.4 | 99.8 | 96 | 83.9 | 100 | 89.7 | 96.5 | 94.2 |
